Data: patent US4820821A, “Novel pyridazinone-imines and their physiologically tolerated addition salts with acids, their preparation and therapeutic agents containing these compounds” (BASF Aktiengesellschaft, priority 1981, dated 1989)
Counter-ions that a name gives are not always drawn.

The compounds below were run on reserpine-induced hypothermia / blood pressure (assay: Quotient ED 50% antidepressive action / ED 20% hypertensive action). Settings: Table 2; route of hypertensive test not given.
Assay type: in vivo, mouse / rat
Source text: This is evident from the fact that the quotient defined above differs wtih respect to the comparative compounds. […] This arises, inter alia, from the fact that the hypertensive ED 20 constitutes the denominator of the quotient. It is possible that the unforeseeable selective direction of action is attributable to the special substitution,in accordance with the invention, at the 4-imino group.
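Throughout, for Q Increase: larger quotient means more selective hypertensive action.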

Nc1cc[n+](-c2ccccc2)nc1.[O-][Cl+3]([O-])([O-])[O-] [1-phenyl-4-amino-pyridazinium perchlorate, reference compound] was tested. Which “Q Increase” value did it give?
Its value is 22.22.

How did the “Q Increase” value turn out when COc1cc(N)cn[n+]1-c1ccccc1 [Amezinium, 1-phenyl-4-amino-6-methoxypyridazinium methosulfate, reference compound] was run?
Its value is 14.66.

CCCCCCCC(=O)N=c1ccn(-c2ccccc2)nc1 [Example 8, 1,4-dihydro-4-octanoylimino-1-phenylpyridazine hydrochloride] was tested. Which “Q Increase” value did it give?
The value was 95.09.

For O=C(Cc1ccccc1)N=c1ccn(-c2ccccc2)nc1 [Example 9, 1,4-dihydro-1-phenyl-4-[(phenylacetyl)-imino]-pyridazine hydrochloride], which “Q Increase” value is on record?
Its value is 63.17.

How did the “Q Increase” value turn out when O=C(N=c1ccn(-c2ccccc2)nc1)C1CCC1 [Example 11, 4-(cyclobutylcarbonyl)-imino-1,4-dihydro-1-phenylpyridazine hydrochloride] was run?
Its value is 79.09.

Same assay, conditions: compounds of Table 2

COc1cc(N)cn[n+]1-c1ccccc1 [Amezinium, 1-phenyl-4-amino-6-methoxypyridazinium methosulfate, reference compound] was tested. Which “factor by which the hypertensive dose (ED 20%) is smaller than the antidepressive effective dose (ED 50%)” value did it give?
Its value is 15.

Same assay, conditions: hypertensive test i.p.

With Nc1cc[n+](-c2ccccc2)nc1.[O-][Cl+3]([O-])([O-])[O-] [1-phenyl-4-amino-pyridazinium perchlorate, reference compound] as the compound, how does the “Q (quotient ED 50% antidepressive action/ED 20% hypertensive action)” value read?
Its value is 1.60.

Which “Q (quotient ED 50% antidepressive action/ED 20% hypertensive action)” value does the source give for COc1cc(N)cn[n+]1-c1ccccc1 [Amezinium, 1-phenyl-4-amino-6-methoxypyridazinium methosulfate, reference compound] here?
Its value is 1.98.

Same assay, conditions: hypertensive test i.p.; listed as Example 1 of German Laid-Open Application DOS No. 2,245,248

Nc1cc[n+](-c2ccccc2)nc1.[O-][Cl+3]([O-])([O-])[O-] [1-phenyl-4-amino-pyridazinium perchlorate, reference compound] was tested. Which “Q (quotient ED 50% antidepressive action/ED 20% hypertensive action)” value did it give?
The value was 1.6.

Same assay, conditions: hypertensive test i.v.

For Nc1cc[n+](-c2ccccc2)nc1.[O-][Cl+3]([O-])([O-])[O-] [1-phenyl-4-amino-pyridazinium perchlorate, reference compound], which “Q (quotient ED 50% antidepressive action/ED 20% hypertensive action)” value is on record?
Its value is 22.22.

COc1cc(N)cn[n+]1-c1ccccc1 [Amezinium, 1-phenyl-4-amino-6-methoxypyridazinium methosulfate, reference compound] was tested. Which “Q (quotient ED 50% antidepressive action/ED 20% hypertensive action)” value did it give?
Its value is 14.66.

Same assay, conditions: hypertensive test i.v.; listed as Example 1 of German Laid-Open Application DOS No. 2,245,248

For Nc1cc[n+](-c2ccccc2)nc1.[O-][Cl+3]([O-])([O-])[O-] [1-phenyl-4-amino-pyridazinium perchlorate, reference compound], which “Q (quotient ED 50% antidepressive action/ED 20% hypertensive action)” value is on record?
The value was 22.2.

Same assay, conditions: hypertensive test i.v.; listed as amezinium

How did the “Q (quotient ED 50% antidepressive action/ED 20% hypertensive action)” value turn out when COc1cc(N)cn[n+]1-c1ccccc1 [Amezinium, 1-phenyl-4-amino-6-methoxypyridazinium methosulfate, reference compound] was run?
Its value is 14.7.

Same assay, conditions: in vivo

Which “antidepressive and hypertensive action (in words)” value does the source give for Nc1cc[n+](-c2ccccc2)nc1.[O-][Cl+3]([O-])([O-])[O-] [1-phenyl-4-amino-pyridazinium perchlorate, reference compound] here?
Its value is “have an antidepressive and hypertensive action”.

Which “antidepressive and hypertensive action (in words)” value does the source give for COc1cc(N)cn[n+]1-c1ccccc1 [Amezinium, 1-phenyl-4-amino-6-methoxypyridazinium methosulfate, reference compound] here?
Its value is “have an antidepressive and hypertensive action”.

These compounds were tested on blood pressure (assay: Effect on the blood pressure: hypertensive action, pithed rat). Settings: Rattus norvegicus, ip; Table 1; i.p. administration; dose based on the base; read-out: ED 20% hypertensive action (dose which increases the blood pressure of the pithed rat by 20%).
Assay type: in vivo, male Sprague-Dawley rats
Description: The measurement of the blood pressure in the carotid artery was carried out by means of Statham transducers. The substance was administered in the jugular vein (as an aqueous solution, 1 ml/kg) or intraperitoneally (as a tragacanth suspension, 2 ml/kg). The ED 20% is determined as the dose which increases the blood pressure by 20%.

Which ED20 does the source give for COc1cc(N)cn[n+]1-c1ccccc1 [Amezinium, 1-phenyl-4-amino-6-methoxypyridazinium methosulfate, reference compound] here?
Its ED20 is 0.37 mg/kg.

Same assay, conditions: Rattus norvegicus, iv; Table 1; i.v. administration; dose based on the base; read-out: ED 20% hypertensive action (dose which increases the blood pressure of the pithed rat by 20%)

COc1cc(N)cn[n+]1-c1ccccc1 [Amezinium, 1-phenyl-4-amino-6-methoxypyridazinium methosulfate, reference compound] was tested. Which ED20 did it give?
Its ED20 is 0.05 mg/kg.

Same assay, conditions: Rattus norvegicus; Table 2; route not given; dose based on the base; read-out: ED 20% hypertensive action (dose which increases the blood pressure of the pithed rat by 20%)

Which ED20 does the source give for COc1cc(N)cn[n+]1-c1ccccc1 [Amezinium, 1-phenyl-4-amino-6-methoxypyridazinium methosulfate, reference compound] here?
Its ED20 is 0.05 mg/kg.

CCCCCCCC(=O)N=c1ccn(-c2ccccc2)nc1 [Example 8, 1,4-dihydro-4-octanoylimino-1-phenylpyridazine hydrochloride] was tested. Which ED20 did it give?
Its ED20 is 0.055 mg/kg.

With O=C(Cc1ccccc1)N=c1ccn(-c2ccccc2)nc1 [Example 9, 1,4-dihydro-1-phenyl-4-[(phenylacetyl)-imino]-pyridazine hydrochloride] as the compound, how does the ED20 read?
The ED20 was 0.063 mg/kg.

Which ED20 does the source give for O=C(N=c1ccn(-c2ccccc2)nc1)C1CCC1 [Example 11, 4-(cyclobutylcarbonyl)-imino-1,4-dihydro-1-phenylpyridazine hydrochloride] here?
The ED20 was 0.077 mg/kg.

Same assay, conditions: Table 1; i.p. administration; amezinium = 1.00

For Nc1cc[n+](-c2ccccc2)nc1.[O-][Cl+3]([O-])([O-])[O-] [1-phenyl-4-amino-pyridazinium perchlorate, reference compound], which “R.A. (relative activity), hypertensive action” value is on record?
The value was 1.48.

Which “R.A. (relative activity), hypertensive action” value does the source give for COc1cc(N)cn[n+]1-c1ccccc1 [Amezinium, 1-phenyl-4-amino-6-methoxypyridazinium methosulfate, reference compound] here?
The value was 1.00.

Same assay, conditions: Table 1; i.p. administration; dose based on the base

How did the “ED 20% hypertensive action (dose which increases the blood pressure of the pithed rat by 20%)” value turn out when Nc1cc[n+](-c2ccccc2)nc1.[O-][Cl+3]([O-])([O-])[O-] [1-phenyl-4-amino-pyridazinium perchlorate, reference compound] was run?
Its value is 0.25 mg/kg.

Same assay, conditions: Table 1; i.v. administration; amezinium = 1.00

With Nc1cc[n+](-c2ccccc2)nc1.[O-][Cl+3]([O-])([O-])[O-] [1-phenyl-4-amino-pyridazinium perchlorate, reference compound] as the compound, how does the “R.A. (relative activity), hypertensive action” value read?
Its value is 2.78.

Which “R.A. (relative activity), hypertensive action” value does the source give for COc1cc(N)cn[n+]1-c1ccccc1 [Amezinium, 1-phenyl-4-amino-6-methoxypyridazinium methosulfate, reference compound] here?
The value was 1.00.

Same assay, conditions: Table 1; i.v. administration; dose based on the base

Nc1cc[n+](-c2ccccc2)nc1.[O-][Cl+3]([O-])([O-])[O-] [1-phenyl-4-amino-pyridazinium perchlorate, reference compound] was tested. Which “ED 20% hypertensive action (dose which increases the blood pressure of the pithed rat by 20%)” value did it give?
Its value is 0.018 mg/kg.

Same assay, conditions: Table 2; amezinium = 1.00

Which “R.A. (relative activity), hypertensive action” value does the source give for Nc1cc[n+](-c2ccccc2)nc1.[O-][Cl+3]([O-])([O-])[O-] [1-phenyl-4-amino-pyridazinium perchlorate, reference compound] here?
The value was 2.78.

For COc1cc(N)cn[n+]1-c1ccccc1 [Amezinium, 1-phenyl-4-amino-6-methoxypyridazinium methosulfate, reference compound], which “R.A. (relative activity), hypertensive action” value is on record?
The value was 1.00.

For CCCCCCCC(=O)N=c1ccn(-c2ccccc2)nc1 [Example 8, 1,4-dihydro-4-octanoylimino-1-phenylpyridazine hydrochloride], which “R.A. (relative activity), hypertensive action” value is on record?
The value was 0.91.

How did the “R.A. (relative activity), hypertensive action” value turn out when O=C(Cc1ccccc1)N=c1ccn(-c2ccccc2)nc1 [Example 9, 1,4-dihydro-1-phenyl-4-[(phenylacetyl)-imino]-pyridazine hydrochloride] was run?
The value was 0.79.

Which “R.A. (relative activity), hypertensive action” value does the source give for O=C(N=c1ccn(-c2ccccc2)nc1)C1CCC1 [Example 11, 4-(cyclobutylcarbonyl)-imino-1,4-dihydro-1-phenylpyridazine hydrochloride] here?
The value was 0.65.

Same assay, conditions: Table 2; route not given; dose based on the base

Nc1cc[n+](-c2ccccc2)nc1.[O-][Cl+3]([O-])([O-])[O-] [1-phenyl-4-amino-pyridazinium perchlorate, reference compound] was tested. Which “ED 20% hypertensive action (dose which increases the blood pressure of the pithed rat by 20%)” value did it give?
The value was 0.018 mg/kg.

These compounds were tested on reserpine-induced hypothermia (assay: Antidepressive action: reserpine antagonism, inhibition of reserpine-induced hypothermia of the mouse). Settings: Mus musculus; Table 1; oral administration 60 min before reserpine; dose based on the base; read-out: ED 50% (dose which inhibits the reserpine-induced hypothermia of the mouse by 50%).
Assay type: in vivo, male Swiss mice
Description: Antidepressants effect dose-dependent inhibition of this hypotherma. The test substances are administered orally 60 minutes before the administration of reserpine.
The dose which effects 50% inhibition of the reserpine-induced hypothermia is determined, as the ED 50%, from the linear regression between log dose (mg/kg) and relative reduction in hypothermia (Δ%).

Which ED50 does the source give for COc1cc(N)cn[n+]1-c1ccccc1 [Amezinium, 1-phenyl-4-amino-6-methoxypyridazinium methosulfate, reference compound] here?
The ED50 was 0.733 mg/kg.

Same assay, conditions: Mus musculus; Table 2; oral administration; dose based on the base; read-out: ED 50% (dose which inhibits the reserpine-induced hypothermia of the mouse by 50%)

Which ED50 does the source give for CCCCCCCC(=O)N=c1ccn(-c2ccccc2)nc1 [Example 8, 1,4-dihydro-4-octanoylimino-1-phenylpyridazine hydrochloride] here?
Its ED50 is 5.23 mg/kg.

With O=C(Cc1ccccc1)N=c1ccn(-c2ccccc2)nc1 [Example 9, 1,4-dihydro-1-phenyl-4-[(phenylacetyl)-imino]-pyridazine hydrochloride] as the compound, how does the ED50 read?
Its ED50 is 3.98 mg/kg.

O=C(N=c1ccn(-c2ccccc2)nc1)C1CCC1 [Example 11, 4-(cyclobutylcarbonyl)-imino-1,4-dihydro-1-phenylpyridazine hydrochloride] was tested. Which ED50 did it give?
Its ED50 is 6.09 mg/kg.

Same assay, conditions: Table 1; amezinium = 1.00; oral

Nc1cc[n+](-c2ccccc2)nc1.[O-][Cl+3]([O-])([O-])[O-] [1-phenyl-4-amino-pyridazinium perchlorate, reference compound] was tested. Which “R.A. (relative activity), reserpine antagonism” value did it give?
The value was 1.83.

COc1cc(N)cn[n+]1-c1ccccc1 [Amezinium, 1-phenyl-4-amino-6-methoxypyridazinium methosulfate, reference compound] was tested. Which “R.A. (relative activity), reserpine antagonism” value did it give?
The value was 1.00.

Same assay, conditions: Table 1; oral administration 60 min before reserpine; dose based on the base

With Nc1cc[n+](-c2ccccc2)nc1.[O-][Cl+3]([O-])([O-])[O-] [1-phenyl-4-amino-pyridazinium perchlorate, reference compound] as the compound, how does the “ED 50% (dose which inhibits the reserpine-induced hypothermia of the mouse by 50%)” value read?
The value was 0.40 mg/kg.

Same assay, conditions: Table 2; amezinium = 1.00; oral

How did the “R.A. (relative activity), reserpine antagonism” value turn out when Nc1cc[n+](-c2ccccc2)nc1.[O-][Cl+3]([O-])([O-])[O-] [1-phenyl-4-amino-pyridazinium perchlorate, reference compound] was run?
The value was 1.83.

How did the “R.A. (relative activity), reserpine antagonism” value turn out when COc1cc(N)cn[n+]1-c1ccccc1 [Amezinium, 1-phenyl-4-amino-6-methoxypyridazinium methosulfate, reference compound] was run?
The value was 1.00.

For CCCCCCCC(=O)N=c1ccn(-c2ccccc2)nc1 [Example 8, 1,4-dihydro-4-octanoylimino-1-phenylpyridazine hydrochloride], which “R.A. (relative activity), reserpine antagonism” value is on record?
The value was 0.14.

For O=C(Cc1ccccc1)N=c1ccn(-c2ccccc2)nc1 [Example 9, 1,4-dihydro-1-phenyl-4-[(phenylacetyl)-imino]-pyridazine hydrochloride], which “R.A. (relative activity), reserpine antagonism” value is on record?
The value was 0.18.

O=C(N=c1ccn(-c2ccccc2)nc1)C1CCC1 [Example 11, 4-(cyclobutylcarbonyl)-imino-1,4-dihydro-1-phenylpyridazine hydrochloride] was tested. Which “R.A. (relative activity), reserpine antagonism” value did it give?
Its value is 0.12.

Same assay, conditions: Table 2; oral administration; dose based on the base

For Nc1cc[n+](-c2ccccc2)nc1.[O-][Cl+3]([O-])([O-])[O-] [1-phenyl-4-amino-pyridazinium perchlorate, reference compound], which “ED 50% (dose which inhibits the reserpine-induced hypothermia of the mouse by 50%)” value is on record?
The value was 0.40 mg/kg.
